In brackets after ≈: the same amount, converted by molar mass. Activity calls are given as the source filed them. The calls are words filed in the database; no cut-off is given here.
How the values were obtained:
[1] = test system: Staphylococcus aureus; assay: Anti-bacterial activity against methicillin-resistant Staphylococcus aureus N315 assessed as inhibition of bacterial growth; format: functional; conditions: Staphylococcus aureus, N315; read-out: MIC
[2] = test system: Acinetobacter baumannii; assay: Induction of membrane depolarization Acinetobacter baumannii assessed as increase in red fluorescence intensity at 0.5 to 8 times of MIC concentration measured after 6 hrs by […] assay; format: functional, organism-based
[3] = test system: Escherichia coli; assay: Reduction of biofilm virulent factors in Escherichia coli ATCC 25922 assessed as decrease in extracellular polymeric substances (EPS) by measuring optical density at 490 nm at 1 times of MIC concentration by congo red binding assay (reference value: 0.028 to 0.031); format: functional
[4] = test system: Escherichia coli; assay: Anti-bacterial activity against Escherichia coli ATCC 25922 assessed as growth inhibition by measuring optical density measured at 1/4 time of MIC in presence of 2 times of MIC of norfloxacin by Checkerboard assay (reference value: 0.128); format: functional
[5] = test system: Acinetobacter baumannii; assay: Induction of intracellular ROS accumulation in Acinetobacter baumannii assessed as larger green fluorescence densities at 1/4 to 2 times of MIC by microscopic imaging assay; format: functional, organism-based
[6] = test system: Escherichia coli; assay: Anti-bacterial activity against Escherichia coli ATCC 25922 assessed at fractional inhibitory concentration measured upto 9 hrs in presence of norfloxacin; format: functional
[7] = test system: Pseudomonas aeruginosa; assay: Anti-bacterial activity against Pseudomonas aeruginosa ATCC 15442 assessed as inhibition of bacterial growth; format: functional; conditions: Pseudomonas aeruginosa, ATCC 15442; read-out: MIC
[8] = test system: Cell membrane; assay: Induction of physical destruction of cell membrane in Escherichia coli ATCC 25922 assessed as leakage of protein at 1/4 to 8 times of MIC concentration by Coomassie blue quantitative assay; format: cell membranes
[9] = test system: Escherichia coli; assay: Anti-bacterial activity against Escherichia coli ATCC 25922 assessed as growth inhibition by measuring optical density measured at 2 time of MIC in presence of 1/4 times of MIC of norfloxacin by Checkerboard assay (reference value: 0.128); format: functional
[10] = test system: Acinetobacter baumannii; assay: Anti-bacterial activity against Acinetobacter baumannii assessed as growth inhibition by measuring optical density measured at 4 time of MIC in presence of 1 times of MIC of norfloxacin by Checkerboard assay (reference value: 0.152); format: functional
[11] = test system: Acinetobacter baumannii; assay: Anti-bacterial activity against Acinetobacter baumannii assessed as inhibition of bacterial growth measured upto 9 hrs; format: functional, organism-based
[12] = test system: Escherichia coli; assay: Anti-bacterial activity against Escherichia coli ATCC 25922 assessed as growth inhibition by measuring optical density measured at 1 time of MIC in presence of 1/2 times of MIC of norfloxacin by Checkerboard assay (reference value: 0.125); format: functional
[13] = test system: Escherichia coli; assay: Reduction in metabolic activity of Escherichia coli ATCC 25922 assessed as biomass of the fluorescent pink change to non-fluorescent blue; format: functional, organism-based
[14] = test system: Acinetobacter baumannii; assay: Reduction of biofilm virulent factors in Acinetobacter baumannii assessed as decrease in extracellular polymeric substances (EPS) at 2 times of MIC concentration by congo red binding assay relative to control; format: functional; parameters: scale not given: the % may be the effect or the level left
[15] = test system: Escherichia coli; assay: Anti-bacterial activity against Escherichia coli ATCC 25922 assessed at fractional inhibitory concentration index measured upto 9 hrs in presence of norfloxacin; format: functional
[16] = test system: Escherichia coli; assay: Anti-bacterial activity against Escherichia coli ATCC 25922 assessed as growth inhibition by measuring optical density measured at 1/2 time of MIC in presence of 1/8 times of MIC of norfloxacin by Checkerboard assay (reference value: 0.124); format: functional
[17] = test system: Acinetobacter baumannii; assay: Antibiofilm activity against Acinetobacter baumannii assessed as inhibition rate of bio-film formation at 8 times of MIC concentration in presence of sodium dodecyl sulfate by Crystal violet assay relative to control; format: functional, organism-based
[18] = test system: Cell membrane; assay: Induction of membrane damage in Acinetobacter baumannii assessed as increase in fluorescence intensity at 1 to 4 times of MIC concentration measured after 90 mins by DiSC3 fluorescent probe assay; format: cell membranes
[19] = test system: Escherichia coli; assay: Anti-bacterial activity against Escherichia coli ATCC 25922 assessed as growth inhibition by measuring optical density measured at 2 time of MIC in presence of 2 times of MIC of norfloxacin by Checkerboard assay (reference value: 0.128); format: functional
[20] = test system: Acinetobacter baumannii; assay: Antibiofilm activity against Acinetobacter baumannii assessed as clearance rate of mature biofilm at 8 times of MIC concentration relative to control; format: functional
[21] = test system: Pseudomonas aeruginosa; assay: Anti-bacterial activity against Pseudomonas aeruginosa ATCC 9027 assessed as inhibition of bacterial growth; format: functional
[22] = Hemolysis in human RBC assessed as hemolysis rate at effective bactericidal concentration for 3 hrs; format: toxicity, cell-based, Erythrocyte; conditions: red blood cells, read-out: Activity
[23] = test system: Acinetobacter baumannii; assay: Anti-bacterial activity against Acinetobacter baumannii assessed as growth inhibition by measuring optical density measured at 4 time of MIC in presence of 2 times of MIC of norfloxacin by Checkerboard assay (reference value: 0.152); format: functional
[24] = test system: Acinetobacter baumannii; assay: Anti-bacterial activity against Acinetobacter baumannii assessed as growth inhibition by measuring optical density measured at 1/4 time of MIC in presence of 1 times of MIC of norfloxacin by Checkerboard assay (reference value: 0.152); format: functional
[25] = test system: Escherichia coli; assay: Reduction in metabolic activity of Escherichia coli ATCC 25922 assessed as decrease in fluorescence intensity at 1/4 to 8 times of MIC measured after 6 hrs by resazurin sodium salt assay; format: functional, organism-based
[26] = test system: Escherichia coli; assay: Reduction in metabolic activity of Escherichia coli ATCC 25922 at MIC concentration relative to control; format: functional; parameters: scale not given: the % may be the effect or the level left
[27] = test system: Acinetobacter baumannii; assay: Anti-bacterial activity against Acinetobacter baumannii assessed as growth inhibition by measuring optical density measured at 1/4 time of MIC in presence of 1/2 times of MIC of norfloxacin by Checkerboard assay (reference value: 0.152); format: functional
[28] = test system: Escherichia coli; assay: Anti-bacterial activity against Escherichia coli ATCC 25922 assessed as growth inhibition by measuring optical density measured at 2 time of MIC in presence of 1/2 times of MIC of norfloxacin by Checkerboard assay (reference value: 0.128); format: functional
[29] = test system: Escherichia coli; assay: Anti-bacterial activity against Escherichia coli ATCC 25922 assessed as growth inhibition by measuring optical density measured at 4 time of MIC in presence of 1/8 times of MIC of norfloxacin by Checkerboard assay (reference value: 0.125); format: functional
[30] = test system: Candida albicans; assay: Anti-fungal activity against Candida albicans 90023 assessed as inhibition of fungal growth; format: functional
[31] = test system: Escherichia coli; assay: Induction of intracellular ROS accumulation in Escherichia coli ATCC 25922 assessed as larger green fluorescence densities at 1/4 to 2 times of MIC by microscopic imaging assay; format: functional, organism-based
[32] = test system: Escherichia coli; assay: Anti-bacterial activity against Escherichia coli ATCC 25922 assessed as inhibition of bacterial growth measured after 20 passages at sub-MIC concentration by multiple resistance study; format: functional, organism-based
[33] = test system: Escherichia coli; assay: Anti-bacterial activity against Escherichia coli ATCC 25922 assessed as growth inhibition by measuring optical density measured at 1 time of MIC in presence of 1/4 times of MIC of norfloxacin by Checkerboard assay (reference value: 0.125); format: functional
[34] = test system: Escherichia coli; assay: Anti-bacterial activity against Escherichia coli ATCC 25922 assessed as growth inhibition by measuring optical density measured at 1/2 time of MIC in presence of 1 times of MIC of norfloxacin by Checkerboard assay (reference value: 0.124); format: functional

## CCCCc1nc(Cl)c(C2NC(=O)NC(CN3CCN(C(=O)/C(=N/OC)c4csc(N)n4)CC3)=C2C(=O)OCC)[nH]1 (centres undefined)
[1]
  MIC: 26 µM (≈ 15.8 µg/mL)
[2]
  Activity: Active
[3]
  OD: 0.071
[4]
  OD: 0.078
[5]
  Activity: Active
[6]
  FIC: 0.5
[7]
  MIC: 26 µM (≈ 15.8 µg/mL)
[8]
  Activity: Active
[9]
  OD: 0.102
[10]
  OD: 0.051
[11]
  Activity: Dose-Dependent Effect
[12]
  OD: 0.096
[13]
  Activity: Active
[14]
  Activity: 70.2%
[15]
  fractional inhibitory concentration index (FICI): 0.75
[16]
  OD: 0.117
[17]
  Activity: Active
[18]
  Activity: inactive
[19]
  OD: 0.052
[20]
  Activity: 42.6%
[21]
  MIC: 26 µM (≈ 15.8 µg/mL)
[22]
  hemolysis at 3 h: < 5%
[23]
  OD: 0.051
[24]
  OD: 0.112
[25]
  Activity: Active
[26]
  Activity: 63.6%
[27]
  OD: 0.125
[28]
  OD: 0.057
[29]
  OD: 0.108
[30]
  MIC: 53 µM (≈ 32.2 µg/mL)
[31]
  Activity: Active
[32]
  Activity: Active
[33]
  OD: 0.111
[34]
  OD: 0.082

— ChEMBL document CHEMBL5505979, “Novel aminothiazoximone-corbelled ethoxycarbonylpyrimidones with antibiofilm activity to conquer Gram-negative bacteria through potential multitargeting effects” (Eur J Med Chem, 2024)
